Where two headings read alike, the source gives them in different places.

Consider one compound from patent publication US20240238235A1, “METHODS AND COMPOSITIONS FOR TREATING PULMONARY ALVEOLAR PROTEINOSIS RELATED TO MARS MUTATIONS” (INSTITUT NATIONAL DE LA SANTÉ ET DE LA RECHERCHE MÉDICALE, priority 2021, published 2024).

How the values of series [1] were obtained: The level of methioninemia in a healthy subject should be measured on an empty stomach and should be less than 45 μM. Typically, in the subject affected by MARS mutations, the level of methioninemia to reach efficacy should be in the range of 45-500 μM (>45 μM at residual dosage and <500 μM at peak dosage 1 hour after the dose has been taken). The level of methioninemia is measured with the following methods. […] For accurate quantification, stable isotope internal standards of the same structure for each metabolite (Eurisotop, Saint Aubin, France) are added to samples before protein precipitation. Internal standards are labeled on all carbons and nitrogen(s) with following exceptions: glutamine 2,3,3,4,4-D5, asparagine ^13C4, tryptophan Indole-D5, citrulline ^13CD4 and homocysteine 3,3,3′,3′,4,4,4′,4′-D8. Samples are first derivatized using the AccQ Tag™ Ultra (Waters Corporation, Milford, MA, USA) according to manufacturer recommendations. Amino acid separation is performed with an Acquity™ UPLC system using a CORTECS™ UPLC C18 column (1.6 μm, 2.1×150 mm) coupled to microTQS™ tandem mass spectrometer (Waters Corporation, Milford, MA, USA). The run time for quantification of all amino acids is 12 min.
The MetPAP study was registered at clinicaltrials.gov (NCT03887169). […] The secondary objectives were to determine the efficacy of such treatment.
The frequency of medication was based on the known half-life of the moleculel and the peak was determined by performing kinetic measurements on the patients during the first day of supplementation.

Series [2] deals with peripheral monocytes. The conditions noted are these: control = 100%. On the procedure: Peripheral monocyte and phagocyte functions were assessed by quantifying ROS production. Whole blood collected from lithium heparinized tubes (500 μl) was incubated for 15 min at 37° C. with dihydrorhodamine 123[…] (Sigma-Aldrich). Samples were then treated for 1 h at 37° C. with GM-CSF (10 ng/ml; R&D Systems), followed by stimulation for 5 min with fMLF (10^-5M; Sigma-Aldrich). The reaction was stopped by adding 1 ml ice-cold lysis solution (BD Biosciences) and incubating for 5 min on ice. Samples were then washed with PBS (Sigma-Aldrich) and the pellets resuspended in 300 μl FacsFlow solution (BD Biosciences). Samples were analyzed by flow cytometry on a FACSCanto II (BD Biosciences). Phagocytes (neutrophils and monocytes) were selected on the FSC-SSC dot plot. Events (50,000) were recorded at a constant PMT voltage. Results are expressed as the index of stimulation (MIF DHE GM-CSF+fMLP/DHE GM-CSF alone).

Series [3] has as its system pulmonary alveolar proteinosis related to MARS mutations. Particulars: P1, 3 and 4. The text has this: We compared the course of treated patients to that of patients reported by Enaud et al. 2 as well as seven patients diagnosed since this publication. Data collection and analysis for these patients were approved by the Institutional Review Board of the French Respiratory Society (CEPRO2013-019) and the CPP Île de France II (CPP2013-12-03 SC).
Several parameters were compared between treated patients and HC. We computed the difference between the values for each continuous variable at inclusion and at last follow-up for each treated patient, as well as between diagnosis and six months to one year from diagnosis for the HC. Differences were compared between groups using Mann-Whitney tests. For each categorical variable (i.e., weaning from oxygen and enteral nutrition), we compared the proportion of patients who were weaned from such support at the second assessment between groups using Fisher's exact test. A p-value<0.05 was considered statistically significant.

For series [4] the test system is unchanged. From the text: Eight patients started the treatment from the age of 11 to 24 years old. […] In the 7 seven remaining patients, treatment was started less than one year ago and will be assessed in the next months.
Series [5] concerns yeast. Particulars: methionine supplementation in the culture medium; cited from earlier work.
Series [6] concerns patients with MAT I/III deficiency. The conditions noted are these: large series of patients with MAT I/III deficiency; cited from earlier work.
Series [7] concerns subjects receiving a loading dose of methionine. Particulars: cited from earlier work.

Take `CSCC[C@H](N)C(=O)O` [methionine, L-methionine]: the “methioninemia at T0 (residual)” value in series [1] (P3, D21 of treatment) is 42 µM. In series [1] (kinetic study in the patients), the “time of peak plasma methionine after taking the medication” value turned out to be 1 h. Besides, the “residual and peak plasma methionine values over 24-h periods, days and months” value in series [1] (treatment every 6 h) is “reproducible residual and peak values”. Also, the “stimulation index relative to control (GM-CSF priming of ROS production by peripheral monocytes)” value in series [2] (P1, after three months of treatment (M3)) was determined as 109%; in series [2] (P3, after three months of treatment (M3)), 73%. Further, the “change M0 to M6-M12 of blood neutrophils, CRP, albumin and GGT versus HC” value in series [3] (p=0.011, 0.039, 0.006, 0.038) is “greater improvement”. Besides, in series [3] (vs 1/15 HC, p=0.056), the “patients weaned off oxygen at the second assessment” value is given as 2/3. The “patients weaned off enteral nutrition at the second assessment” value in series [3] (vs none of 18 HC, p=0.014) was 2/3. Further, the clinical outcome is “improve clinical respiratory status (regression of dry cough and exercise dyspnoea), to improve lung function (gain in forced vital capacity and diffuse capacity of carbon monoxide), and to improve chest CT scan (regression of ground glass opacities, stabilization of the fibrosis)” in series [4] (1 patient, treatment started 2 years ago); “stop whole lung lavages, to “clean” the chest CT scan from the alveolar consolidations and stop the progression of fibrotic lesions, to catch-up on weight and to normalize liver blood tests and inflammatory markers” in series [4] (2 patients treated between 1 and 2 years of age); “stop whole lung lavages or even to avoid it, to normalize the chest CT scan after 3 months of treatment, to normalize the liver blood tests and inflammatory markers, to catch-up on weight, and to wean off the oxygen and nutritional support initially required” in series [4] (4 additional patients treated from diagnosis (3 to 6 months)). Besides, in series [5], the “growth and enzyme activity in yeast impaired by Ala393Thr/Ser567Leu mutations” value is reported as “restored”. Also, the “mean plasma methionine values at which CNS abnormalities were observed” value in series [6] is more than 800 µM. Further, in series [7], the “adverse events (arterial blood pressure change, nausea and vomiting, dizziness, polyuria)” value is “mild and always transient”.
